Three compounds from ChEMBL document CHEMBL3045792, “Synthesis, antimicrobial activity, and molecular modeling of novel 4-(3-(4-benzylpiperazin-1-yl)propoxy)-7-methoxy-3-substituted phenyl-2H-chromen-2-one” (2013) can be followed below.

Structures are written as SMILES. Calls of active or inactive are those of the source. No cut-off for these calls is given here.

Holding throughout (assay type): functional
The test system of test [1] is Staphylococcus aureus. Kind of test: Antibacterial activity against Staphylococcus aureus assessed as growth inhibition at 600 ug/ml by NCCLS […] method. To be noted: read-out: IZ.
Test [2] deals with Bacillus pumilus. Nature of the test: Antibacterial activity against Bacillus pumilus assessed as growth inhibition at 900 ug/ml by NCCLS […] method. To be noted: read-out: IZ.
Test [3] concerns Bacillus pumilus. Kind of test: Antibacterial activity against Bacillus pumilus assessed as growth inhibition at 600 ug/ml by NCCLS […] method. To be noted: read-out: IZ.
The subject of test [4] is Priestia megaterium. Nature of the test: Antibacterial activity against Bacillus megaterium assessed as growth inhibition at 900 ug/ml by NCCLS […] method. To be noted: read-out: IZ.
The subject of test [5] is Priestia megaterium. Kind of test: Antibacterial activity against Bacillus megaterium assessed as growth inhibition at 600 ug/ml by NCCLS […] method. To be noted: read-out: IZ.
Test [6] deals with Bacillus subtilis. Kind of test: Antibacterial activity against Bacillus subtilis assessed as growth inhibition at 900 ug/ml by NCCLS […] method. Particulars: read-out: IZ.
The subject of test [7] is Bacillus subtilis. Kind of test: Antibacterial activity against Bacillus subtilis assessed as growth inhibition at 600 ug/ml by NCCLS […] method. To be noted: read-out: IZ.
The test system of test [8] is Klebsiella aerogenes. Nature of the test: Antibacterial activity against Enterobacter aerogenes assessed as growth inhibition at 900 ug/ml by NCCLS […] method. Particulars: read-out: IZ.
Test [9] deals with Klebsiella aerogenes. Kind of test: Antibacterial activity against Enterobacter aerogenes assessed as growth inhibition at 600 ug/ml by NCCLS […] method. Particulars: read-out: IZ.
Test [10] deals with Klebsiella pneumoniae. Nature of the test: Antibacterial activity against Klebsiella pneumoniae assessed as growth inhibition at 900 ug/ml by NCCLS […] method. To be noted: read-out: IZ.
In test [11] the test system is Klebsiella pneumoniae. Kind of test: Antibacterial activity against Klebsiella pneumoniae assessed as growth inhibition at 600 ug/ml by NCCLS […] method. To be noted: read-out: IZ.
In test [12] the test system is Proteus mirabilis. Kind of test: Antibacterial activity against Proteus mirabilis assessed as growth inhibition at 900 ug/ml by NCCLS […] method. Particulars: read-out: IZ.
Test [13] deals with Proteus mirabilis. Nature of the test: Antibacterial activity against Proteus mirabilis assessed as growth inhibition at 600 ug/ml by NCCLS […] method. To be noted: read-out: IZ.
For test [14], the system named is Proteus vulgaris. Kind of test: Antibacterial activity against Proteus vulgaris assessed as growth inhibition at 900 ug/ml by NCCLS […] method. To be noted: read-out: IZ.
The subject of test [15] is Proteus vulgaris. Kind of test: Antibacterial activity against Proteus vulgaris assessed as growth inhibition at 600 ug/ml by NCCLS […] method. To be noted: read-out: IZ.
The subject of test [16] is Escherichia coli. Kind of test: Antibacterial activity against Escherichia coli assessed as growth inhibition at 900 ug/ml by NCCLS […] method.
Test [17] relates to Fusarium oxysporum. Kind of test: Antifungal activity against Fusarium oxysporum assessed as growth inhibition at 900 ug/ml.
Test [18] concerns Fusarium oxysporum. Nature of the test: Antifungal activity against Fusarium oxysporum assessed as growth inhibition at 600 ug/ml.
Test [19] concerns Fusarium oxysporum. Kind of test: Antifungal activity against Fusarium oxysporum assessed as growth inhibition at 300 ug/ml.
The test system of test [20] is Candida albicans. Nature of the test: Antifungal activity against Candida albicans assessed as growth inhibition at 1200 ug/ml. Particulars: read-out: IZ.
The test system of test [21] is Candida albicans. Kind of test: Antifungal activity against Candida albicans assessed as growth inhibition at 900 ug/ml. To be noted: read-out: IZ.
In test [22] the test system is Candida albicans. Nature of the test: Antifungal activity against Candida albicans assessed as growth inhibition at 600 ug/ml. Particulars: read-out: IZ.
Test [23] has as its system Candida albicans. Kind of test: Antifungal activity against Candida albicans assessed as growth inhibition at 300 ug/ml. Particulars: read-out: IZ.
For test [24], the system named is Streptococcus pyogenes. Nature of the test: Antibacterial activity against Streptococcus pyogenes assessed as growth inhibition at 600 ug/ml by NCCLS […] method. To be noted: read-out: IZ.
Test [25] deals with Streptococcus pyogenes. Kind of test: Antibacterial activity against Streptococcus pyogenes assessed as growth inhibition at 900 ug/ml by NCCLS […] method. Particulars: read-out: IZ.
In test [26] the test system is Staphylococcus aureus. Nature of the test: Antibacterial activity against Staphylococcus aureus assessed as growth inhibition at 900 ug/ml by NCCLS […] method. Particulars: read-out: IZ.
The subject of test [27] is Escherichia coli. Kind of test: Antibacterial activity against Escherichia coli assessed as growth inhibition at 600 ug/ml by NCCLS […] method.
The subject of test [28] is Colletotrichum falcatum. Kind of test: Antifungal activity against Glomerella tucumanensis assessed as growth inhibition at 1200 ug/ml. Particulars: read-out: IZ.
In test [29] the test system is Colletotrichum falcatum. Kind of test: Antifungal activity against Glomerella tucumanensis assessed as growth inhibition at 900 ug/ml. To be noted: read-out: IZ.
Test [30] concerns Colletotrichum falcatum. Nature of the test: Antifungal activity against Glomerella tucumanensis assessed as growth inhibition at 600 ug/ml. To be noted: read-out: IZ.
In test [31] the test system is Colletotrichum falcatum. Kind of test: Antifungal activity against Glomerella tucumanensis assessed as growth inhibition at 300 ug/ml. Particulars: read-out: IZ.
In test [32] the test system is Exserohilum rostratum. Nature of the test: Antifungal activity against Setosphaeria rostrata assessed as growth inhibition at 1200 ug/ml. Particulars: read-out: IZ.
Test [33] has as its system Exserohilum rostratum. Nature of the test: Antifungal activity against Setosphaeria rostrata assessed as growth inhibition at 900 ug/ml. Particulars: read-out: IZ.
The subject of test [34] is Exserohilum rostratum. Kind of test: Antifungal activity against Setosphaeria rostrata assessed as growth inhibition at 600 ug/ml. Particulars: read-out: IZ.
Test [35] relates to Exserohilum rostratum. Nature of the test: Antifungal activity against Setosphaeria rostrata assessed as growth inhibition at 300 ug/ml. To be noted: read-out: IZ.
For test [36], the system named is Fusarium oxysporum. Nature of the test: Antifungal activity against Fusarium oxysporum assessed as growth inhibition at 1200 ug/ml.

On to `COc1ccc(CN2CCN(CCCOc3c(-c4ccccc4)c(=O)oc4cc(OC)ccc34)CC2)cc1`, for which the zone of inhibition at 600 µg/mL was 3 mm with Staphylococcus aureus [1]; 5.25 mm with Bacillus pumilus [3]; 4.26 mm with Priestia megaterium [5]; 4.28 mm in the test on Bacillus subtilis [7]; 4.24 mm in the test with Klebsiella aerogenes [9]; 5.48 mm in the test with Klebsiella pneumoniae [11]. In addition, the zone of inhibition at 600 µg/mL in the test on Proteus mirabilis [13] is 5.25 mm; in the test on Proteus vulgaris [15], 2 mm; in the test with Candida albicans [22], 5.62 mm; with Streptococcus pyogenes [24] it was 2.08 mm; in the test with Colletotrichum falcatum [30], 8.62 mm; with Exserohilum rostratum [34], 7.56 mm. Moreover, the zone of inhibition at 900 µg/mL with Bacillus pumilus [2] turned out to be 10.5 mm; in the test on Priestia megaterium [4] it was 8.19 mm; in the test with Bacillus subtilis [6], 8.9 mm; with Klebsiella aerogenes [8], 8.9 mm; in the test on Klebsiella pneumoniae [10], 10.1 mm; in the test on Proteus mirabilis [12] it was 10.5 mm. The zone of inhibition at 900 µg/mL in the test on Proteus vulgaris [14] stood at 4.25 mm; in the test with Candida albicans [21] it was 11 mm; in the test on Streptococcus pyogenes [25] it was 4.19 mm; in the test with Staphylococcus aureus [26], 6.25 mm; in the test with Colletotrichum falcatum [29] it was 17 mm; in the test with Exserohilum rostratum [33], 15 mm. Also, the “growth inhibition (GI)” value with Escherichia coli [16], with Fusarium oxysporum [17], in the test with Fusarium oxysporum [18], in the test on Fusarium oxysporum [19], with Escherichia coli [27] and in the test with Fusarium oxysporum [36] was “inactive” each time. Also, the zone of inhibition at 1200 µg/mL with Candida albicans [20] came to 23.2 mm; with Colletotrichum falcatum [28], 31.8 mm; in the test on Exserohilum rostratum [32], 28.8 mm. Besides, the zone of inhibition at 300 µg/mL in the test with Candida albicans [23] was found to be 2.76 mm; with Colletotrichum falcatum [31] it was 4.08 mm; in the test on Exserohilum rostratum [35], 3.8 mm.
In the case of `CCC(C)n1ncn(-c2ccc(N3CCN(c4ccc(OCC5COC(Cn6cncn6)(c6ccc(Cl)cc6Cl)O5)cc4)CC3)cc2)c1=O` (configuration not stated) [ITRACONAZOLE], the zone of inhibition at 900 µg/mL was determined as 20 mm in the test on Fusarium oxysporum [17] (read-out: IZ), 12 mm in the test on Candida albicans [21], 18.3 mm in the test on Colletotrichum falcatum [29] and 14.8 mm in the test with Exserohilum rostratum [33]. The zone of inhibition at 600 µg/mL is 10.8 mm in the test on Fusarium oxysporum [18] (read-out: IZ), 5.35 mm in the test on Candida albicans [22], 9.34 mm with Colletotrichum falcatum [30] and 7.56 mm with Exserohilum rostratum [34]. The zone of inhibition at 300 µg/mL with Fusarium oxysporum [19] (read-out: IZ) was found to be 5.46 mm; in the test on Candida albicans [23], 2.67 mm; in the test on Colletotrichum falcatum [31] it was 4.45 mm; with Exserohilum rostratum [35] it was 3.56 mm. In addition, the zone of inhibition at 1200 µg/mL in the test with Candida albicans [20] amounted to 23 mm; in the test with Colletotrichum falcatum [28] it was 33.8 mm; with Exserohilum rostratum [32] it was 27.4 mm; in the test on Fusarium oxysporum [36] (read-out: IZ), 34.4 mm.
With `CN[C@@H]1[C@H](O[C@H]2[C@H](O[C@H]3[C@H](O)[C@@H](O)[C@H](N=C(N)N)[C@@H](O)[C@@H]3N=C(N)N)O[C@@H](C)[C@]2(O)C=O)O[C@@H](CO)[C@H](O)[C@H]1O` [STREPTOMYCIN], the zone of inhibition at 600 µg/mL turned out to be 10.3 mm in the test on Staphylococcus aureus [1]; 7.25 mm with Bacillus pumilus [3]; 6.23 mm in the test with Priestia megaterium [5]; 8.44 mm in the test with Bacillus subtilis [7]; 4.47 mm with Klebsiella aerogenes [9]; 3.24 mm in the test on Klebsiella pneumoniae [11]. Also, the zone of inhibition at 600 µg/mL with Proteus mirabilis [13] came to 12.8 mm; in the test on Proteus vulgaris [15] it was 8.9 mm; with Streptococcus pyogenes [24] it was 8.19 mm; with Escherichia coli [27] (read-out: IZ), 3.06 mm. In addition, the zone of inhibition at 900 µg/mL came to 14.5 mm in the test on Bacillus pumilus [2]; 12.8 mm in the test on Priestia megaterium [4]; 16.2 mm with Bacillus subtilis [6]; 8.76 mm with Klebsiella aerogenes [8]; 6.54 mm in the test with Klebsiella pneumoniae [10]; 20.3 mm with Proteus mirabilis [12]. In addition, the zone of inhibition at 900 µg/mL with Proteus vulgaris [14] came out at 16.1 mm; with Escherichia coli [16] (read-out: IZ), 6.14 mm; in the test with Streptococcus pyogenes [25] it was 16.5 mm; with Staphylococcus aureus [26], 20 mm.
